Earlier results in EP0127274A2, “Esters of metronidazole and compositions containing them” (THE UPJOHN COMPANY, priority 1983, dated 1984).

Details: background statement

solubility in water: approximately 10 mg/ml
Structure (SMILES): Cc1ncc([N+](=O)[O-])n1CCO [metronidazole, 1-(O-hydroxyethyl)-2-methyl-5-nitroimidazole]
